Source: US20110052551A1, “CARDIAC MYOCYTE MORPHOGENIC COMPOSITIONS AND METHODS OF USE THEREFOR” (priority 2008, published 2011)
“Also recorded” adds a separate entry of the source.

B1: Dkk-1: soluble inhibitor of canonical signaling that blocks Wnt-signaling at the cell surface (protein, UniProt O94907 32-266, looked up)
Dickkopf-related protein 1: TLNSVLNSNAIKNLPPPLGGAAGHPGSAVSAAPGILYPGGNKYQTIDNYQPYPCAEDEECGTDEYCASPTRGGDAGVQICLACRKRRKRCMRHAMCCPGNYCKNGICVSSDQNHFRGEIEETITESFGNDHSTLDGYSRRTTLSSKMYHTKGQEGSVCLRSSDCASGLCCARHFWSKICKPVLKEGQVCTKHRRKGSHGLEIFQRCYCGEGLSCRIQKDHHQASNSSRLHTCQRH

Tests used:
Type in all cases: cell-based, mice
[1] = test system: JNK phosphorylation in BMMNCs; experiment: Western immunoblotting of Wnt11-induced JNK phosphorylation; conditions: 1 μM, 3 hours in Wnt11-CM
Protocol: Assessment of Wnt signaling. To investigate non-canonical signaling pathways, freshly isolated unfractionated BMMNCs were cultured in Wnt11-CM or in empty vector (control) medium in the presence or absence of 1 μM of the PKC inhibitor bisindolylmaleimide I (BIM, Sigma) for 3 hours followed by harvest and assessment of JNK phosphorylation by Western immunoblotting (see below and FIG. 9B). The expression of cardiac-specific gene expression in unfractionated BMMNCs was assessed by qRT-PCR following culture for 3 days in Wnt11-CM and empty vector (control) medium with and without PKC (BIM; 1 μM) and JNK (SP600125; 10 μM; Sigma) inhibitors (see FIG. 9B). Expression of Wnt3a and β-catenin were measured by qRT-PCR to investigate the effect of control, Wnt3a medium, and Wnt11-CM on canonical signaling.
(§1) Western immunoblotting and quantitative ELISA. […] Gel transfer efficiency was recorded carefully by making photocopies of membranes dyed with reversible Ponceau staining; gel retention was determined by Coomassie blue staining. […] Immunoreactive bands were visualized with horseradish peroxidase-conjugated anti-goat and anti-rabbit IgG (Santa Cruz Biotechnology) using an ECL detection kit (New England Nuclear, Billerica, Mass., United States of America), quantified by densitometry, and normalized GAPDH. […]

unfractionated BMMNCs [2] = experiment: qRT-PCR of Wnt11-induced cardiac gene expression with PKC and JNK inhibitors; conditions: 3 days in Wnt11-CM, BIM 1 μM, SP600125 10 μM
Protocol: Assessment of mRNA expression by quantitative real-time RT-PCR (qRT-PCR). All qRT-PCR reagents and primers were purchased from Qiagen Inc. (Valencia, Calif., United States of America). Prior to mRNA extraction, cell number was determined and calculated by Trypan blue exclusion. cDNA was generated from freshly isolated (designated as baseline) and cultured unfractionated BMMNCs at days 0, 3, 7, and 21 (see FIG. 9A) using QUANTISCRIPT REVERSE TRANSCRIPTASE™ (Qiagen Inc., Valencia, Calif., United States of America) contained in RT master mix of Cell to cDNA kits according to manufacturer's protocol. […]
To avoid amplification of contaminating DNA, all validated qRT-PCR primers were designed to cross […] sequences within the cDNA to be amplified. Quantitative qRT-PCR analysis was performed in an ABI Prism 7900H sequence detection system (Applied Biosystems, Foster City, Calif.) using QUANTITECT™ SYBR® Green Real Time PCR kits. Each 50 μl qRT-PCR reaction contained 2 μl (approximately 50 ng) of cDNA, 5 μl of 1× primer mix (containing approximately 500 nM sense and anti-sense primers) and 25 μl of 2× QUANTITECT™ SYBR® Green master mix. […]
The PCR product level is calculated from the threshold cycle (Ct). That is, the amplification cycle number at which exponential PCR-generated gene-specific fluorescence is first detected (above a fixed threshold level). […]

unfractionated BMMNCs [3] = experiment: cTnI ELISA in cultured BMMNCs; conditions: for effect on Wnt11-induced expression of cTnI: 21 days of culture in Wnt11-CM
Protocol: Assessment of cardiac differentiation. For quantitative assessment of cardiomyocytic differentiation, an average of 2400 cells/plate were counted. Multiple fields from all 4 quarters of the plate were systematically evaluated. The number of cells expressing cardiac-specific intracellular contractile proteins in each field was counted; the total number of cells was calculated based on nuclear staining with DAPI. In addition, cells were concomitantly stained with markers specific for various non-cardiac lineages (skeletal muscle [myogenin]; neural [nestin, GFAP]; myeloid [CD11b, Gr-1]; and others; Zuba-Surma et al., 2006). Cells were counted as positive when they were positive for cardiac-specific contractile proteins and negative for all of these markers. Thus, a rigorous method was employed to assess cardiac differentiation in vitro. The percentage of cells differentiating into cardiomyocytes was calculated as the number of cells positive for proteins divided by the total number of nuclei in the field. These experiments were performed in triplicate. As a confirmatory measure, the expression of cardiac-specific troponin I (cTnI) was determined by ELISA as described hereinbelow following culture in Wnt11-CM with and without the Wnt inhibitor Dickkopf-1 (Dkk-1; see FIG. 9C).
as §1, with “ELISA. Western analysis was performed as described in Guo et al., 1998; Brandon et al., 2000; Li et al., 2003; and Li et al., 2006.” for “ELISA.”, “GAPDH. In all samples, the content of target protein was expressed as a percentage of the controls (untreated), normalized to GAPDH.” for “GAPDH.”

Molecule | Wnt11-induced JNK phosphorylation [1] | Wnt11-induced cardiac gene expression (unfractionated BMMNCs [2]) | Wnt11-induced cardiac gene expression (unfractionated BMMNCs [2]; listed as bisindolylmaleimide I) | effect on Wnt11-induced expression of cTnI (unfractionated BMMNCs [3]) | effect on Wnt11-induced expression of cTnI (unfractionated BMMNCs [3]; listed as Dickkopf-1) | effect on cTnI expression by itself (unfractionated BMMNCs [3]; 21 days of culture, without Wnt11-CM)
CN(C)CCCn1cc(C2=C(c3c[nH]c4ccccc34)C(=O)NC2=O)c2ccccc21 [BIM, bisindolylmaleimide I] | completely blocked | abolished; also recorded: no expression | completely abolished | – | – | –
B1 | – | – | – | reduced | attenuated | little effect
